According to US12357645B2, “Drug combination for treatment of gastric cancer” (priority 2023, dated 2025):

Tested on: patients with advanced gastric cancer (AGC)
Assay: Phase 1 study of minnelide prodrug alone or with paclitaxel in advanced gastric cancer (NCT 05566834): safety, DLT, MTD, adverse events
[1] = Regimen A (PO daily x21 d/28 d), n = 11

CC(C)[C@]12O[C@H]1[C@@H]1O[C@]13[C@]1(O[C@H]1C[C@H]1C4=C(CC[C@@]13C)C(=O)OC4)[C@@H]2OCOP(=O)([O-])[O-].[Na+].[Na+] [minnelide prodrug, disodium; [(1S,2S,4S,5S,7S,8R,9R,11S, 13S)-1-methyl-17-oxo-7-propan-2-yl-3,6,10,16-tetraoxaheptacyclo [11.7.0.0^2,4.0^2,9.0^5,7.0^9,11.0^14,18]icos-14 (18)-en-8-yl]oxymethyl phosphate]
Grade 5 AEs caused by gastric cancer progression, number (Regimen A): 3 | minnelide prodrug-related AE abdominal pain (Regimen A): 27.3% | minnelide prodrug-related AE anorexia (Regimen A): 54.5% | minnelide prodrug-related AE nausea (Regimen A): 45.5% | Minnelide-related AE Abdominal pain, Any [1]: 3 (27.3) n (%) | Minnelide-related AE Abdominal pain, ≥Gr 3 [1]: 2 (18.2) n (%) | Minnelide-related AE Anorexia, Any [1]: 6 (54.5)/— ^ n (%) | Minnelide-related AE Fatigue, Any [1]: 2 (18.2)/— ^ n (%) | Minnelide-related AE Nausea, Any [1]: 5 (45.5) n (%) | Minnelide-related AE Nausea, ≥Gr 3 [1]: 2 (18.2) n (%) | Minnelide-related AE Neutropenia, Any [1]: 1 (9.1)/1 (9.1) n (%) | Minnelide-related AE Neutropenia, ≥Gr 3 [1]: 1 (9.1)/1 (9.1) n (%) | Minnelide-related AE Overall, Any [1]: 8 (72.7) n (%) | Minnelide-related AE Vomiting, Any [1]: 1 (9.1)/1 (9.1) n (%) | Minnelide-related AE Vomiting, ≥Gr 3 [1]: 1 (9.1)/1 (9.1) n (%) | TRAE Abdominal pain, Any [1]: 5 (45.5) n (%) | TRAE Abdominal pain, ≥Gr 3 [1]: 2 (18.2) n (%) | TRAE Anemia, Any [1]: 2 (18.2)/2 (18.2) n (%) | TRAE Anemia, ≥Gr 3 [1]: 2 (18.2)/2 (18.2) n (%) | TRAE Annualar scaly plaques, Any [1]: 1 (9.1)/— n (%) | TRAE Anorexia, Any [1]: 8 (72.7)/— n (%) | TRAE Azotemia, Any [1]: 1 (9.1)/— n (%) | TRAE Cancer pain, Any [1]: 3 (27.3) n (%) | TRAE Cancer pain, ≥Gr 3 [1]: 1 (9.1) n (%) | TRAE Cancer progression, Any [1]: 3 (27.3)/3 (27.3) n (%) | TRAE Cancer progression, ≥Gr 3 [1]: 3 (27.3)/3 (27.3) n (%) | TRAE Constipation, Any [1]: 1 (9.1)/— n (%) | TRAE Decreased vision, Any [1]: 1 (9.1)/— n (%) | TRAE Depression, Any [1]: 1 (9.1)/— n (%) | TRAE Dyspepsia, Any [1]: 1 (9.1)/— n (%) | TRAE Dysuria, Any [1]: 1 (9.1)/— n (%) | TRAE Fatigue, Any [1]: 3 (27.3)/— n (%) | TRAE Gastric stenosis, Any [1]: 1 (9.1)/1 (9.1) n (%) | TRAE Gastric stenosis, ≥Gr 3 [1]: 1 (9.1)/1 (9.1) n (%) | TRAE Hypophosphatemi, Any [1]: 1 (9.1)/1 (9.1) n (%) | TRAE Hypophosphatemi, ≥Gr 3 [1]: 1 (9.1)/1 (9.1) n (%) | TRAE Nausea, Any [1]: 6 (54.5) n (%) | TRAE Nausea, ≥Gr 3 [1]: 2 (18.2) n (%) | TRAE Neutropenia, Any [1]: 1 (9.1)/1 (9.1) n (%) | TRAE Neutropenia, ≥Gr 3 [1]: 1 (9.1)/1 (9.1) n (%) | TRAE Overall, Any [1]: 11 (100.0) n (%) | TRAE Overall, ≥Gr 3 [1]: 8 (72.7) n (%) | TRAE Tachycardia, Any [1]: 1 (9.1)/— n (%) | TRAE Urinary tract infection, Any [1]: 1 (9.1)/— n (%) | TRAE Vomiting, Any [1]: 3 (27.3) n (%) | TRAE Vomiting, ≥Gr 3 [1]: 1 (9.1) n (%) | dose-limiting toxicities (DLTs), number (Regimen A, dose level 3, 1.5 mg, Grade 3 abdominal pain): two and Two | Minnelide-related AE Abdominal pain, Any (Total Regimens A-C, n = 36): 14 (38.9) n (%) | Minnelide-related AE Abdominal pain, ≥Gr 3 (Total Regimens A-C, n = 36): 4 (11.1) n (%) | Minnelide-related AE Anorexia, Any (Total Regimens A-C, n = 36): 15 (41.7)/— n (%) | Minnelide-related AE Constipation, Any (Total Regimens A-C, n = 36): 1 (2.8)/— n (%) | Minnelide-related AE Fatigue, Any (Total Regimens A-C, n = 36): 4 (11.1)/— n (%) | Minnelide-related AE General weakness, Any (Total Regimens A-C, n = 36): 1 (2.8)/— n (%) | Minnelide-related AE Nausea, Any (Total Regimens A-C, n = 36): 10 (27.8) n (%) | Minnelide-related AE Nausea, ≥Gr 3 (Total Regimens A-C, n = 36): 2(5.6) n (%) | Minnelide-related AE Neutropenia, Any (Total Regimens A-C, n = 36): 11 (30.5) n (%) | Minnelide-related AE Neutropenia, ≥Gr 3 (Total Regimens A-C, n = 36): 7 (19.4) n (%) | Minnelide-related AE Overall, Any (Total Regimens A-C, n = 36): 27 (75.0) n (%) | Minnelide-related AE Overall, ≥Gr 3 (Total Regimens A-C, n = 36): 10 (27.8) n (%) | Minnelide-related AE Pruritus, Any (Total Regimens A-C, n = 36): 1 (2.8)/— n (%) | Minnelide-related AE Vomiting, Any (Total Regimens A-C, n = 36): 3 (8.3)/— n (%) | TRAE Abdominal pain, Any (Total Regimens A-C, n = 36): 16 (44.4) n (%) | TRAE Abdominal pain, ≥Gr 3 (Total Regimens A-C, n = 36): 4 (11.1) n (%) | TRAE Alopecia, Any (Total Regimens A-C, n = 36): 2 (5.6)/— n (%) | TRAE Anemia, Any (Total Regimens A-C, n = 36): 5 (13.9) n (%) | TRAE Anemia, ≥Gr 3 (Total Regimens A-C, n = 36): 3 (8.3) n (%) | TRAE Annualar scaly plaques, Any (Total Regimens A-C, n = 36): 1 (2.8)/— n (%) | TRAE Anorexia, Any (Total Regimens A-C, n = 36): 18 (50.0)/— n (%) | TRAE Azotemia, Any (Total Regimens A-C, n = 36): 2 (5.6)/— n (%) | TRAE Cancer pain, Any (Total Regimens A-C, n = 36): 3 (8.3) n (%) | TRAE Cancer pain, ≥Gr 3 (Total Regimens A-C, n = 36): 1 (2.8) n (%) | TRAE Cancer progression, Any (Total Regimens A-C, n = 36): 4 (11.1)/4 (11.1) n (%) | TRAE Cancer progression, ≥Gr 3 (Total Regimens A-C, n = 36): 4 (11.1)/4 (11.1) n (%) | TRAE Constipation, Any (Total Regimens A-C, n = 36): 3 (8.3)/— n (%) | TRAE Decreased vision, Any (Total Regimens A-C, n = 36): 1 (2.8)/— n (%) | TRAE Depression, Any (Total Regimens A-C, n = 36): 1 (2.8)/— n (%) | TRAE Dyspepsia, Any (Total Regimens A-C, n = 36): 2 (5.6)/— n (%) | TRAE Dysuria, Any (Total Regimens A-C, n = 36): 1 (2.8)/— n (%) | TRAE Edema, Any (Total Regimens A-C, n = 36): 1 (2.8)/— n (%) | TRAE Fatigue, Any (Total Regimens A-C, n = 36): 7 (19.4)/— n (%) | TRAE Gastric stenosis, Any (Total Regimens A-C, n = 36): 1 (2.8)/1 (2.8) n (%) | TRAE Gastric stenosis, ≥Gr 3 (Total Regimens A-C, n = 36): 1 (2.8)/1 (2.8) n (%) | TRAE General weakness, Any (Total Regimens A-C, n = 36): 2 (5.6)/— n (%) | TRAE Headache, Any (Total Regimens A-C, n = 36): 1 (2.8)/— n (%) | TRAE Hypercalcemia, Any (Total Regimens A-C, n = 36): 1 (2.8)/1 (2.8) n (%) | TRAE Hypercalcemia, ≥Gr 3 (Total Regimens A-C, n = 36): 1 (2.8)/1 (2.8) n (%) | TRAE Hypophosphatemi, Any (Total Regimens A-C, n = 36): 1 (2.8)/1 (2.8) n (%) | TRAE Hypophosphatemi, ≥Gr 3 (Total Regimens A-C, n = 36): 1 (2.8)/1 (2.8) n (%) | TRAE Jaundice, Any (Total Regimens A-C, n = 36): 1 (2.8)/1 (2.8) n (%) | TRAE Jaundice, ≥Gr 3 (Total Regimens A-C, n = 36): 1 (2.8)/1 (2.8) n (%) | TRAE Mucositis, Any (Total Regimens A-C, n = 36): 1 (2.8)/— n (%) | TRAE Nausea, Any (Total Regimens A-C, n = 36): 12 (33.3) n (%) | TRAE Nausea, ≥Gr 3 (Total Regimens A-C, n = 36): 2(5.6) n (%) | TRAE Neutropenia, Any (Total Regimens A-C, n = 36): 11 (30.6) n (%) | TRAE Neutropenia, ≥Gr 3 (Total Regimens A-C, n = 36): 7 (19.4) n (%) | TRAE Overall, Any (Total Regimens A-C, n = 36): 34 (94.4) n (%) | TRAE Overall, ≥Gr 3 (Total Regimens A-C, n = 36): 16 (44.4) n (%) | TRAE Pruritus, Any (Total Regimens A-C, n = 36): 1 (2.8)/— n (%) | TRAE Rash, Any (Total Regimens A-C, n = 36): 1 (2.8)/— n (%) | TRAE Sore throat, Any (Total Regimens A-C, n = 36): 1 (2.8)/— n (%) | TRAE Tachycardia, Any (Total Regimens A-C, n = 36): 2 (5.6)/— n (%) | TRAE Tuberculosis, Any (Total Regimens A-C, n = 36): 1 (2.8)/— n (%) | TRAE Urinary tract infection, Any (Total Regimens A-C, n = 36): 2 (5.6)/— n (%) | TRAE Vomiting, Any (Total Regimens A-C, n = 36): 5 (13.9) n (%) | TRAE Vomiting, ≥Gr 3 (Total Regimens A-C, n = 36): 1 (2.8) n (%) | TRAE Weight loss, Any (Total Regimens A-C, n = 36): 1 (2.8)/— n (%) | TRAE neutropenia (all regimens, 11/36): 30.6% | TRAE nausea (all regimens, 12/36): 33.3% | TRAE abdominal pain (all regimens, 16/36): 44.4% | TRAEs above Grade 3, share of patients (all regimens, 16 patients of 36): 44.4% | TRAE anorexia (all regimens, 18/36): 50% | Grade 5 AEs caused by gastric cancer progression, number (all regimens, 36 patients): four and Four | Grade 3 or higher AE with minnelide prodrug: abdominal pain (all regimens, n = 36): 11.1% | Grade 3 or higher AE with minnelide prodrug: nausea (all regimens, n = 36): 5.6% | Grade 3 or higher AE with minnelide prodrug: neutropenia (all regimens, n = 36): 19.4% | Grade 3 or higher AEs with minnelide prodrug, overall (all regimens, n = 36): 27.8% | TRAE above Grade 3: abdominal pain (all regimens, n = 36): 11.1% | TRAE above Grade 3: neutropenia (all regimens, n = 36): 19.4% | drop in blood counts: resolution after withholding the drug (in vivo): 4 to 8 days | Grade ≥3 abdominal pain (monotherapy group): 18.2% | Grade ≥3 nausea (monotherapy group): 18.2% | Grade ≥3 neutropenia (monotherapy group): 9.1% | Grade ≥3 vomiting (monotherapy group): 9.1% | maximum tolerated dose (MTD) (monotherapy, PO once daily for 21 days every 4 weeks): 1.25 mg | drop in blood counts: onset after start of drug (usually seen): 5 to 7 days
